Target: T1, recombinant Human β-Amyloid Peptide (1-42) (Homo sapiens, UniProt P05067)
T1 construct: recombinant Human β-Amyloid Peptide (1-42); purchased BioLegend 843801
Assay: Mass spectrometry (MS) binding assay
Conditions: 22 pmol/μL peptide, 1100 pmol/μL compound (50×); for Number of molecules bound to Aβ42: direct infusion Q-TOF MS, stoichiometry of the binding; for Semiquantitative Estimation: semiquantitative evaluation of the binding compared to a blank
Description: Compounds of the invention were screened by mass spectrometry (“MS”) binding assays to assess the ability of compounds to bind to the protein. Approximately 1 mg of the compound was reconstituted in 1 mL of MilliQ water and vortexed vigorously for 2 minutes until completely in solution. The sample was then diluted to create an approximately 2200 pmol/μL solution. One mg of recombinant Human β-Amyloid Peptide (1-42) from BioLegend (99% purity, cat: 843801) was reconstituted in 200 μL of MilliQ water and vortexed vigorously for 2 minutes to solubilize the peptide creating a 5 mg/mL solution. Samples were then diluted to a final concentration 44 pmol/μL prior to mix with drug solution. Samples were then mixed together for a final concentration of 22 pmol/μL (x) for peptide and 1100 pmol/μL for individual compounds (50×). Samples were infused directly in mass specs after adding 50 μL of 10% formic acid in final solution to increase the ionization. The data acquisition was performed using a Waters time of flight mass spectrometer (Q-TOF Micro). The data was acquired using the scanning mode to allow for the detection of the peptide. Samples were infused at room temperature. The mass spectrometer conditions were maintained throughout the study to ensure consistency of the data. The Waters Qtof conditions were as follows: Samples were directly infused into the mass spectrometer at a flow rate of 20 μL/min using in-build Syringe Pump and Hamilton 1 mL Syringe and the acquisition time was kept 2 minutes. Once acquisition of the samples was completed, the raw data was then analyzed using the Water MassLynx 4.1, SCN744. Stoichiometry of the binding was determined and the semiquantitative evaluation of the binding was compared to a blank.

T1 sequence (P05067 672-713 limits assumed): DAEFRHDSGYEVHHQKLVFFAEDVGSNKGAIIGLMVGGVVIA

SMILES | Number of molecules bound to Aβ42 | Semiquantitative Estimation
CNC(=O)[C@@H]1C[C@@H](S(=O)(=O)O)CN1 [Compound 2084] | [+5] | [+++++]
O=C([C@@H]1C[C@H](S(=O)(=O)O)CN1)N(CCO)CCO [Compound 2059] | [+2] | [++]
CCN(CC)C(=O)[C@@H]1C[C@@H](S(=O)(=O)O)CN1 [Compound 2085] | [+4] | [++++]
O=C(NCc1ccccc1)[C@@H]1C[C@@H](S(=O)(=O)O)CN1 [Compound 2083] | [+2] | [++]
O=C(NCc1ccccc1)[C@@H]1C[C@H](S(=O)(=O)O)CN1 [Compound 2055] | [+4] | [++++]
C[C@H](NC(=O)[C@@H]1C[C@H](S(=O)(=O)O)CN1)C(=O)O [Compound 2061] | [+4] | [++++]
O=C(NC1CCNCC1)[C@@H]1C[C@H](S(=O)(=O)O)CN1 [Compound 2077] | [+4] | [++++]
O=C([C@@H]1C[C@@H](S(=O)(=O)O)CN1)N(CCO)CCO [Compound 2087] | [+4] | [++++]
O=C(N[C@@H](Cc1ccccc1)C(=O)O)C1CCC(S(=O)(=O)O)C1 (some centres unmarked) [Compound 2034] | No Binding | 

More lines, now with the values ahead:

Number of molecules bound to Aβ42 | Semiquantitative Estimation | SMILES
[+3] | [+++] | O=C(O)C1CCC(S(=O)(=O)O)C1 (centres unmarked) [Compound 2029, 3-Sulfocyclopentane-1-carboxylic acid]
[+2] | [++] | CC(C)[C@H](N)C(=O)NC1CCC(S(=O)(=O)O)C1 (stereo partly drawn) [Compound 2010, 3-((S)-2-amino-3-methylbutanamido)cyclopentane-1-sulfonic acid]
No Binding |  | O=C(N[C@@H](Cc1ccc(O)cc1)C(=O)NC1CCC(S(=O)(=O)O)C1)OCc1ccccc1 (stereo partly drawn) [Compound 2021, 3-((S)-2-(((benzyloxy)carbonyl)amino)-3-(4-hydroxyphenyl)propanamido)cyclopentane-1-sulfonic acid]
[+3] | [+++] | COC(=O)C1CCC(S(=O)(=O)O)C1 (centres unmarked) [Compound 2028, 3-(Methoxycarbonyl)cyclopentane-1-sulfonic acid]
[+2] | [++] | CS(=O)(=O)CC[C@H](NC(=O)OCc1ccccc1)C(=O)NC1CCC(S(=O)(=O)O)C1 (stereo partly drawn) [Compound 2026, 3-((S)-2-(((benzyloxy)carbonyl)amino)-4-(methylsulfonyl)butanamido)cyclopentane-1-sulfonic acid]
[+4] | [++++] | N[C@@H](CO)C(=O)NC1CCC(S(=O)(=O)O)C1 (some centres unmarked) [Compound 2012]
[+3] | [+++] | CS(=O)(=O)CC[C@H](N)C(=O)NC1CCC(S(=O)(=O)O)C1 (stereo partly drawn) [Compound 2014, 3-((S)-2-amino-4-(methylsulfonyl)butanamido)cyclopentane-1-sulfonic acid]
[+1] | [+] | NC1CCC(S(=O)(=O)O)C1 (centres unmarked) [Compound 2005, 3-aminocyclopentane-1-sulfonic acid]
[+1] | [+] | CC(C)C[C@H](N)C(=O)NC1CCC(S(=O)(=O)O)C1 (stereo partly drawn) [Compound 2011, 3-((S)-2-amino-4-methylpentanamido)cyclopentane-1-sulfonic acid]
[+3] | [+++] | N[C@@H](Cc1ccc(O)cc1)C(=O)NC1CCC(S(=O)(=O)O)C1 (stereo partly drawn) [Compound 2015, 3-((S)-2-amino-3-(4-hydroxyphenyl)propanamido)cyclopentane-1-sulfonic acid]
No Binding |  | CC(C)C[C@H](NC(=O)OCc1ccccc1)C(=O)NC1CCC(S(=O)(=O)O)C1 (stereo partly drawn) [Compound 2024, 3-((S)-2-(((benzyloxy)carbonyl)amino)-4-methylpentanamido)cyclopentane-1-sulfonic acid]
[+1] | [+] | O=C(N[C@@H](CO)C(=O)O)C1CCC(S(=O)(=O)O)C1 (some centres unmarked) [Compound 2037]
[+1] | [+] | O=C(NCc1ccccc1)C1CCC(S(=O)(=O)O)C1 (centres unmarked) [Compound 2030, 3-(benzylcarbamoyl)cyclopentane-1-sulfonic acid]
